Results reported in patent US20150352075A1, “Treatment of Alzheimer's and Cognitive Impairment With Andrographolides” (INNOBIOSCIENCE, LLC, priority 2013, published 2015).

Legend:
[1] = system: APPswe/PS-1 double transgenic mice; experiment: Memory flexibility test (modified Morris Water Maze); format: in vivo; conditions: 7-month-old APPswe/PS-1 mice, 2.0 mg/kg IP three times per week, four weeks, vs Tg control
[2] = system: APPswe/PS-1 double transgenic mice; experiment: LTP by TBS in hippocampal CA1 slices from treated transgenic mice; format: in vivo; conditions: slices from both sets (7- and 12-month-old) of treated APPswe/PS-1 mice
[3] = system: APPswe/PS-1 double transgenic mice; experiment: Immunoblot of synaptic proteins in hippocampus and cortex of treated mice; format: in vivo
[4] = system: APPswe/PS-1 double transgenic mice; experiment: Slot blot of Aβ oligomers (A11 antibody) in hippocampus of treated mice; format: in vivo
[5] = system: APPswe/PS-1 double transgenic mice; experiment: Tau phosphorylation (PHF-1, AT8) by immunoblot and immunohistochemistry in treated mice; format: in vivo
[6] = system: CA3-CA1 connections in hippocampal slices; experiment: Electrophysiology (fEPSP, PPF, LTP, LTD) in Wt hippocampal slices; format: cell-based, mice
Method: Slices were transferred to an experimental chamber (2 ml), superfused (3 ml/min, at 20-22° C.) with gassed ACSF and visualized by trans-illumination with a binocular microscope (MSZ-10, Nikon, Melville, N.Y.). […] The stimulation was in the Stratum Radiatum within 100-200 μm from the recording site. The paired pulse facilitation index was calculated by ((R2−R1)/R1), where R1 and R2 were the peak amplitudes of the first and second fEPSP respectively. To generate LTP we used Theta Burst Stimulation (TBS) consisting of 5 trains of stimulus with an inter-train interval of 20 s. Each train consisted of 10 bursts at 5 Hz and each burst having 4 pulses at 100 Hz. To generate LTD we used Low Frequency Stimulation (LFS) consisting in 900 paired pulses at 1 Hz. Recordings were filtered at 2.0-3.0 kHz, sampled at 4.0 kHz using an A/D converter, and stored with pClamp 10 (Molecular Devices). Evoked postsynaptic responses were analyzed off-line, using an analysis software (pClampfit, Molecular Devices), which allowed visual detection of events, computing only those events that exceeded and arbitrary threshold.

[7] = system: Wnt/β-catenin pathway in hippocampal slices; experiment: Wnt pathway mechanism in hippocampal slices (sFRP, Dkk-1, Dvl-3 mobility shift, time course); format: cell-based, mice
Method: Slice preparation. […] Transverse slices (250-300 μm) from the dorsal hippocampus were cut under oxygen-saturated cold artificial cerebrospinal fluid using a Vibroslice microtome (VSL, World Precision Instruments, Inc WPI, Sarasota, Fla.). After obtained, slices were incubated in ACSF for at least than one hour at room temperature, in order to stabilize activity. In every moment during dissection, slicing and experimentation slices were oxygenated with 95% oxygen-5% carbon dioxide.
Briefly, tissues were homogenized in RIPA buffer (10 mM Tris-Cl, pH 7.4, EDTA 5 mM, 1% NP-40, 1% sodium deoxycholate, and 1% SDS) supplemented with a protease inhibitor mixture (1 mM PMSF, 2 μg/mL aprotinin, 1 μg/mL pepstatin and 10 μg/mL benzamidine) and phosphatase inhibitors (25 mMNaF, 100 mM Na3VO4, 1 mM EDTA and 30 μM Na4P207) using a Potter homogenizator and then passed sequentially through different caliber syringes. […] Protein concentration was determined using the BCA Protein Assay Kit (Pierce). Samples were resolved by […] 10% SDS-PAGE and transferred to a PVDF membrane. The reactions were followed by incubation with anti-mouse, anti-goat or anti-rabbit IgG peroxidase conjugated (Pierce, Rockford, Ill.) and developed using an ECL kit (Western Lightning Plus ECL, PerkinElmer).

HEK293T cells = experiment: TOPflash/FOPflash luciferase reporter assay; format: cell-based
Method: 150,000 HEK293T cells were seeded in triplicate per condition and kept for 24 hours at 37° C. with 5% CO2. The cultures were transfected with TOPflash or FOPflash (400 ng), which are firefly-luciferase reporter DNA constructs (Milipore), using LipofectAMINE 2000 (Invitrogen). To control for transfection pRL-TK (10 ng) was included in all transfections. […] Values were normalized by the renilla value from the same well. To statistically compare treatments ANOVA was used.

[8] = system: Wnt target genes in cultured hippocampal neurons; experiment: PCR array of Wnt target genes in hippocampal neurons; format: cell-based, rat
Method: Primary culture of rat hippocampal neurons. […] PCR-ARRAY. RNA from hippocampal neurons was extracted using Trizol. Quantification and purity of RNA preparations were checked by absorbance using Nanodrop ND-2000. Only preparations with a 260/280 nm ratio ≧1.8, a 260/230 nm ratio ≧1.7 and no sign of RNA degradations, verified by agarose gel electrophoresis with Gel Red™ were used. Genomic DNA was degraded. Using RT2First-Strand cDNA Synthesis kit (SuperArray), 1 ng total RNA was reverse transcribed and then real-time PCR was performed by adding cDNA directly to PCR Master Mix, containing SYBR Green and ROX. The mixtures were then aliquoted into a 96-well PCR array plates, which profiles the expression of 84 Wnt target genes from rat. The PCR was run on ABI StepOnePlus, with 1 cycle of 10 min at 95° C. followed by 40 cycles of 15s at 95° C. and 1 min at 60° C. […] Treatment of neuronal cultures. Primary hippocampal cultures of neurons 14 DIV were washed twice in neurobasal medium and maintained for 1 hour. Next ANDRO (10 μM) and 6-BIO (10 μM) were added to different time periods.

[9] = Side effects in treated animals; conditions: in vivo

C=C1CC[C@@H]2C(C)(CO)C(O)CC[C@@]2(C)C1C/C=C1/C(=O)OCC1O (stereo in doubt) [ANDRO, 3-(2-(Decahydro-6-hydroxy-5-(hydroxymethyl)-5,8a-dimethyl-2-methylenenaphthyl)ethylidene)dihydro-4-hydroxyfuran-2(3H)-one]
number of trial to criterion of learning [1]: reduction in the number of trial to criterion of learning | LTP induction in CA3-CA1 transmission [2]: have the property to induce a LTP that is maintained for 1 h | PSD-95 and GluA2 levels ([3]; mature Tg mice): increase of PSD-95 and GluA2 levels | total levels of pre-synaptic proteins SYP and VAMP ([3]; young APPswe/PS-1 mice): unaltered | levels of post-synaptic proteins (Shank, GluN2B, GluA2, PSD-95) ([3]; young APPswe/PS-1 mice, hippocampus and cortex): significantly recovers the post-synaptic proteins | level of Aβ oligomers (A11 slot-blot) ([4]; 7 month-old APPswe/PS-1 mice): did not show significant changes | levels of Aβ-oligomers (A11 slot blot) ([4]; FIG. 3G mice (legend: old APPswe/PS-1)): did not show significant changes | number of AT8-positive neurons next to amyloid deposits ([5]; 6 month-old APPswe/PS-1, circular area surrounding plaques): clear decrease in the number of AT8-positive neurons next to amyloid deposits | total AT8-positive cells outside the circular area around the plaques ([5]; hippocampus): decrease in the number of these cells | PHF-1- and AT8-positive tau levels (immunoblot) ([5]; hippocampus of 6 month-old APPswe/PS-1 mice, vs untreated): reduction in PHF-1- and AT8-positive tau levels | fEPSP amplitude (basal synaptic transmission) ([6]; ANDRO (5 μM), slices exposed for 30 min): increased the fEPSP amplitude | paired pulse facilitation (PPF) ratio ([6]; Wt hippocampal slices): does not increase PPF ratio | LTP induction or maintenance ([6]; Wt hippocampal slices, TBS, in the presence of ANDRO): do not observed alteration in the LTP induction or maintenance | induction of LTD ([6]; hippocampal slices, LFS): the LTD was inhibited | speed of increase in GSK3β pSer-9 and decrease in pTyr-216 ([7]; compared to Wnt-3a treatment): faster | mobility shift (phosphorylation) of Dvl-3 ([7]; hippocampal slices, 1 h, western blot): does not induce a mobility shift of Dvl-3 | time at which total levels of β-catenin increased ([7]; slices from 2 month-old wild-type mice, 5 μM ANDRO, Wnt3a conditioned medium or 10 μM 6-B10): 15 min | FOPflash reporter activity (HEK293T cells; 10 μM, 24 h): not in the FOPflash | TOPflash reporter activity (HEK293T cells; 10 μM, 24 h): significant increase in the TOPflash | increase of luciferase reporter over control (HEK293T cells; HEK293T, TOPflash): 4 fold | Cdh-1 gene expression [8]: differential expression induced by ANDRO | number of Wnt target genes specifically modulated ([8]; 9 h, of the 86 genes analyzed): 3 genes | number of modulated Wnt target genes shared by both treatments ([8]; 9 h, of the 86 genes analyzed): 4 | Ets2 gene expression ([8]; after Bonferroni correction): down-regulation of Ets2 gene | side effects in animals [9]: seems not to cause side effects in animals
